Data reported in patent publication US11629154B2, “Tetrahydropyranooxazine derivatives having selective BACE1 inhibitory activity” (SHIONOGI & CO., LTD., priority 2018, dated 2023).

Key:
CYP3A4 = CYP3A4 (Homo sapiens (Human), UniProt P08684); assay: CYP3A4(MDZ) MBI test; format: in vitro ADME; conditions: pooled human liver microsomes, midazolam 1-hydroxylation, preincubation 0 or 30 minutes
Method: CYP3A4(MDZ) MBI test is a test of investigating mechanism based inhibition (MBI) potential on CYP3A4 inhibition of a compound. CYP3A4 inhibition is evaluated using 1-hydroxylation reaction of midazolam (MDZ) by pooled human liver microsomes as a marker reaction.
The reaction conditions were as follows: substrate, 10 μmol/L MDZ; pre-reaction time, 0 or 30 minutes; substrate reaction time, 2 minutes; reaction temperature, 37° C.; protein content of pooled human liver microsomes, 0.5 mg/mL at pre-reaction time, […] (at 10-fold dilution) at reaction time; concentrations of the compound of the present invention, 1, 5, 10, 20 μmol/L (4 points).
Pooled human liver microsomes in a K-Pi buffer (pH 7.4) and a compound of the present invention solution as a pre-reaction solution were added to a 96-well plate at the composition of the pre-reaction. A part of pre-reaction solution was transferred to another 96-well plate, and diluted 10-fold by a substrate in a K-Pi buffer. NADPH as a co-factor was added to initiate the marker reaction (without preincubation). After a predetermined time of the marker reaction, methanol/acetonitrile=1/1 (v/v) solution was added in order to terminate the marker reaction. On the other hand, NADPH was also added to a remaining pre-reaction solution in order to initiate a pre-reaction (with preincubation). After a predetermined time of a pre-reaction, a part was transferred to another 96-well plate, and diluted 10-fold by a substrate in a K-Pi buffer in order to initiate the marker reaction. After a predetermined time of the marker reaction, methanol/acetonitrile=1/1 (v/v) solution is added in order to terminate the marker reaction. After centrifuged at 3000 rpm for 15 minutes, 1-hydroxymidazolam in the supernatant is quantified by LC/MS/MS.
The sample adding DMSO to a reaction system instead of compound of the present invention solution was adopted as a control (100%) because DMSO is used as a solvent to dissolve a compound of the present invention. Remaining activity (%) was calculated at each concentration of the compound of the present invention added as the solution, and IC50 value was calculated by reverse-presumption using a logistic model with a concentration and an inhibition rate. Shifted IC value was calculated as “IC value without preincubation (0 minutes)/IC value with preincubation (30 minutes)″. When a shifted IC value was 1.5 or more, this was defined as positive. When a shifted IC value was less than 1.1, this was defined as negative.

[1] = tested on: Abeta 1-42 in cerebrospinal fluid (CSF); assay: Pharmacology in the beagle dog: beta-amyloid profile in CSF; format: in vivo
Method: Test compounds were tested to evaluate the effect on the beta-amyloid profile in cerebrospinal fluid (CSF) of dogs after a single dose, in combination with pharmacokinetic (PK) follow up and limited safety evaluation.
In the case of compounds shown below, two or 4 beagle dogs (1 or 2 male, 1 or 2 female) were dosed with vehicle (1 mL/kg of an aqueous solution of 20% cyclodextrin) and 4 beagle dogs (2 males and 2 females) per dose group were dosed with test compound at the doses indicated in Table 20 in an aqueous 20% cyclodextrin solution with a concentration in mg/mL identical to the dose given in mg/kg) on an empty stomach.
CSF was taken in conscious animals directly from the lateral ventricle via a cannula which was screwed in the skull and covered with subcutaneous tissue and skin, before and at 4, 8, 25 and 49 hours after dosing. Eight hours after dosing the animals got access to their regular meal for 30 minutes. Blood was taken for PK follow up (0.5, 1, 2, 4, 8, 25 and 49 hours) and serum samples for biochemistry were taken before and at 8 and 25h after dosing. The CSF samples were used for measurement of Abeta 1-37, Abeta 1-38, Abeta 1-40 and Abeta 1-42.

[2] = target: P-gp (MDR1 expressing LLC-PK1 cells) (Homo sapiens (Human), UniProt P08183); assay: P-gp substrate test; format: in vitro ADME; conditions: MDR1/LLC-PK1 versus LLC-PK1
Method: 1. MDR1 expressing LLC-PK1 cells and its parent cells were routinely cultured in Medium A (Medium 199 (Invitrogen) supplemented with 10% FBS (Invitrogen), gentamycin (0.05 mg/mL, Invitrogen) and hygromycin B (100 μg/mL, Invitrogen)) at 37° C. under 5% CO2/[…] gasses. For the transport experiments, these cells were seeded on Transwell (Registered trademark) insert (96-well, pore size: 0.4 μm, Coaster) at a density of 1.4×10^4 cells/insert and added Medium B (Medium 199 supplemented with 10% FBS and gentamycin at 0.05 mg/mL) to the feeder tray. These cells were incubated in a CO2 incubator (5% CO2/[…] gasses, 37° C.) and replace apical and basolateral culture medium every 48-72 hr after seeding. These cells were used between 4 and 6 days after seeding. 2. The medium in the culture insert seeded with MDR1 expressing cells or parent cells were removed by aspiration and rinsed by HBSS. The apical side (140 μL) or basolateral side (175 μL) was replaced with transport buffer containing reference substrates and the present invention and then an aliquot (50 μL) of transport buffer in the donor side was collected to estimate initial concentration of reference substrate and the present invention. After incubation for designed time at 37° C., an aliquot (50 μL) of transport buffer in the donor and receiver side were collected. Assay was performed by duplicate or triplicate. 3. Reference substrate and the present invention in the aliquot was quantified by LC/MS/MS.
Permeated amounts across monolayers of MDR1 expressing and parent cells were determined, and permeation coefficients (Pe) were calculated using Excel 2003 from the following equitation: Pe (cm/sec)=Permeated amount (pmol)/area of cell membrane (cm^2)/initial concentration (nM)/incubation time (sec) Where, permeated amount was calculated from permeation concentration (nM, concentration of the receiver side) of the substance after incubation for the defined time (sec) multiplied by volume (mL) and area of cell membrane was used 0.1433 (cm2).
The efflux ratio was calculated using the following equation: Efflux Ratio=Basolateral-to-Apical Pe/Apical-to-Basolateral Pe The net flux was calculated using the following equation: Net flux=Efflux Ratio in MDR1 expressing cells/Efflux Ratio in parent cells

Chain of P-gp (MDR1 expressing LLC-PK1 cells) (P08183 whole entry): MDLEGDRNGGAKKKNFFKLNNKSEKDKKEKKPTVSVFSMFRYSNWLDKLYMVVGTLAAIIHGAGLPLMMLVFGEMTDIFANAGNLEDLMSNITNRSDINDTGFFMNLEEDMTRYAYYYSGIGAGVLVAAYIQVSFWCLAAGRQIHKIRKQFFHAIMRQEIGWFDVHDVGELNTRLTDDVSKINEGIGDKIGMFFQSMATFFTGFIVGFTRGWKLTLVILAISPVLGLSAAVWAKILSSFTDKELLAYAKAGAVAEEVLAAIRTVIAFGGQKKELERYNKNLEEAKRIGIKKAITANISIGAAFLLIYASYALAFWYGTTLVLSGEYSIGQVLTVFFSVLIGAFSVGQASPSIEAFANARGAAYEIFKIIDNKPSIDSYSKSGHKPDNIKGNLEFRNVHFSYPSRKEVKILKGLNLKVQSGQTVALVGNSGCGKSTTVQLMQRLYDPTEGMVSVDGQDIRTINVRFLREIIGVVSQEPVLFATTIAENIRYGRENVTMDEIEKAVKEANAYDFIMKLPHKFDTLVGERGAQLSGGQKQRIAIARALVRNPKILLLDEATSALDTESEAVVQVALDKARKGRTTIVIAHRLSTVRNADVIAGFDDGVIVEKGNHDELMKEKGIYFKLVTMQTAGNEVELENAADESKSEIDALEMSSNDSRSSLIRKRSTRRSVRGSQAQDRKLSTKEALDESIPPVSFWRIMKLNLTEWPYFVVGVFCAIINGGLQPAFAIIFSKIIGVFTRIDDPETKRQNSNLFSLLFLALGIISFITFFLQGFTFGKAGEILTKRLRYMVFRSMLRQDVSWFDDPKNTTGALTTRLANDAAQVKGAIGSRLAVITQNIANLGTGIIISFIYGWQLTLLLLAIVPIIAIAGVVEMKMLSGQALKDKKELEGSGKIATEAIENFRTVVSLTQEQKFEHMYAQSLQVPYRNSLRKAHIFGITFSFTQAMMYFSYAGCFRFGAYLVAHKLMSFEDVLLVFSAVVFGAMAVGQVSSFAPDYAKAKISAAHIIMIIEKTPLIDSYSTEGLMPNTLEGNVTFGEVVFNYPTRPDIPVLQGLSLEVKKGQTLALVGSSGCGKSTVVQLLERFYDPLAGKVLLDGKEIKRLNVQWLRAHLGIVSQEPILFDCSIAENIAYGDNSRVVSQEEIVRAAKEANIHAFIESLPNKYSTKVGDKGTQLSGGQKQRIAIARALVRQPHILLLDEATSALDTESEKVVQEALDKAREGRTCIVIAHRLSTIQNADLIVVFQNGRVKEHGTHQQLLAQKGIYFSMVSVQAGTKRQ
Chain of CYP3A4 (P08684 whole entry): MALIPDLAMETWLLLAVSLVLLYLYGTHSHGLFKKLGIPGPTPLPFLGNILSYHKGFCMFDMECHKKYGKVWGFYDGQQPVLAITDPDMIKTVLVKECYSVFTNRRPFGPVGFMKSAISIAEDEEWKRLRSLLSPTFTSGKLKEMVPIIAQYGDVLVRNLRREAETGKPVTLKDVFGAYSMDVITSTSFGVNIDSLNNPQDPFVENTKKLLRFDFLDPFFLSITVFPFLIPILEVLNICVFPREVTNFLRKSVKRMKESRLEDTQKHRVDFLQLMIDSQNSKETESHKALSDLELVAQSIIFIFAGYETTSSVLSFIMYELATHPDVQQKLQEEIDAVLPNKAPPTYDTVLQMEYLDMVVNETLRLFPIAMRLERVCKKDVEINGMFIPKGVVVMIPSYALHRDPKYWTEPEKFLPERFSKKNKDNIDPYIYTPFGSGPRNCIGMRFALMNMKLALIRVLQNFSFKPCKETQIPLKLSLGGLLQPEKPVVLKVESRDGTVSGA

| P-gp ER ratio [2] | SMILES | MBI MDZ (CYP3A4) | % Decrease in Abeta 1-42 at 8 h post dosing compared to own baseline ([1]; single dose 0.31 mg/kg) | % Decrease in Abeta 1-42 at 8 h post dosing compared to own baseline ([1]; single dose 0.63 mg/kg) | % Decrease in Abeta 1-42 at 24 h^(a) or 25 h^(b) post dosing compared to own baseline ([1]; single dose 0.63 mg/kg) | other results |
| --- | --- | --- | --- | --- | --- | --- |
| 7.1 | NC1=N[C@](CF)(c2cc(NC(=O)c3ccc(C(F)(F)F)cn3)ccc2F)[C@H]2COCC[C@H]2O1 [Compound I-105] | Negative (When a shifted IC value was less than 1.1, this was defined as negative) |  |  |  |  |
| 6.1 | COc1cnc(C(=O)Nc2ccc(F)c([C@@]3(CF)N=C(N)O[C@@H]4CCOC[C@@H]43)c2)cn1 [Compound I-067] | Negative (When a shifted IC value was less than 1.1, this was defined as negative) | −36% | −64% |  |  |
| 6.2 | NC1=N[C@](CF)(c2cc(NC(=O)c3cnc(OC(F)F)cn3)ccc2F)[C@H]2COCC[C@H]2O1 [Compound I-076] | Negative (When a shifted IC value was less than 1.1, this was defined as negative) | −68% | −65% |  |  |
| 4.7 | NC1=N[C@](CF)(c2cc(NC(=O)c3cnc(-n4cncn4)cn3)ccc2F)[C@H]2COCC[C@H]2O1 [Compound I-047] | Negative (When a shifted IC value was less than 1.1, this was defined as negative) |  |  |  |  |

Continued, molecule first:

| SMILES | P-gp ER ratio [2] | MBI MDZ (CYP3A4) | % Decrease in Abeta 1-42 at 8 h post dosing compared to own baseline ([1]; single dose 0.31 mg/kg) | % Decrease in Abeta 1-42 at 8 h post dosing compared to own baseline ([1]; single dose 0.63 mg/kg) | % Decrease in Abeta 1-42 at 24 h^(a) or 25 h^(b) post dosing compared to own baseline ([1]; single dose 0.63 mg/kg) | other results |
| --- | --- | --- | --- | --- | --- | --- |
| C[C@@H]1C[C@H]2OC(N)=N[C@](CF)(c3cc(NC(=O)c4cnc(OCF)cn4)ccc3F)[C@H]2CO1 [Compound I-008] | 6.2 | Negative (When a shifted IC value was less than 1.1, this was defined as negative) | −57% | −58% | −48% | % Decrease in Abeta 1-42 at 24 h^(a) or 25 h^(b) post dosing compared to own baseline ([1]; single dose 0.31 mg/kg): −28%; % Decrease in Abeta 1-42 at 49 h post dosing compared to own baseline ([1]; single dose 0.31 mg/kg): −25%; % Decrease in Abeta 1-42 at 8 h post dosing compared to own baseline ([1]; single dose 2.5 mg/kg): −81%; % Decrease in Abeta 1-42 at 24 h^(a) or 25 h^(b) post dosing compared to own baseline ([1]; single dose 2.5 mg/kg): −76%; % Decrease in Abeta 1-42 at 49 h post dosing compared to own baseline ([1]; single dose 2.5 mg/kg): −49% |
| NC1=N[C@](CF)(c2cc(NC(=O)c3cnc(OCF)cn3)ccc2F)[C@H]2COCC[C@H]2O1 [Compound I-007] | 5.5 | Negative (When a shifted IC value was less than 1.1, this was defined as negative) | −61% | −69% | −48% | % Decrease in Abeta 1-42 at 24 h^(a) or 25 h^(b) post dosing compared to own baseline ([1]; single dose 0.31 mg/kg): −23%; % Decrease in Abeta 1-42 at 8 h post dosing compared to own baseline ([1]; single dose 3.75 mg/kg): −64%; % Decrease in Abeta 1-42 at 24 h^(a) or 25 h^(b) post dosing compared to own baseline ([1]; single dose 3.75 mg/kg): −82%; % Decrease in Abeta 1-42 at 49 h post dosing compared to own baseline ([1]; single dose 3.75 mg/kg): −40% |
| C[C@@H]1C[C@H]2OC(N)=N[C@](CF)(c3cc(NC(=O)c4cnc(OCF)cn4)ccc3Cl)[C@H]2CO1 [Compound I-065] | 5.7 | Negative (When a shifted IC value was less than 1.1, this was defined as negative) |  | −49% | −52% | % Decrease in Abeta 1-42 at 49 h post dosing compared to own baseline ([1]; single dose 0.63 mg/kg): −20%; % Decrease in Abeta 1-42 at 8 h post dosing compared to own baseline ([1]; single dose 1.25 mg/kg): −59%; % Decrease in Abeta 1-42 at 24 h^(a) or 25 h^(b) post dosing compared to own baseline ([1]; single dose 1.25 mg/kg): −56%; % Decrease in Abeta 1-42 at 49 h post dosing compared to own baseline ([1]; single dose 1.25 mg/kg): −34% |
